Molecules are shown by their SMILES.

The assay has as its system Echovirus type 11 (EV 11). The experiment in a line: Anti-echoviral cell culture assay, EV 11. The class given is cell-based. Particulars: Enterovirus B, MRC5, 96 h; Strain EV-11; MRC-5 cells; four days; XTT; read-out: EC50. The procedure:
Echovirus type 11 (EV 11) and enterovirus type 70 (EV 70) were purchased from ATCC (Rockville, Md.). Virus stocks were propagated and antiviral assays were performed in MRC-5 cells (ATCC). Cells were grown in minimal essential medium with 10% fetal bovine serum (Life Technologies, Gaithersburg, Md.).
The ability of compounds to protect cells against either EV 11 or EV 70 infection was measured by the XTT dye reduction method (Weislow et al., J. Natl. Cancer Inst. 1989, vol. 81, 577-586). MRC-5 cells were infected with EV 11 or EV 70 at an m.o.i. of 0.003 or 0.004, respectively, or mock-infected with medium only. Infected or uninfected cells were added at 1×10^4 cells per well and incubated with appropriate concentrations of compound. Four days later, XTT/PMS was added to test plates, and the amount of formazan produced was quantified spectrophotometrically at 450/650 nm. The EC50 was calculated as the concentration of compound that increased the formazan production in compound-treated, virus-infected cells to 50% of that produced by compound-free, uninfected cells. The 50% cytotoxic dose (CC50) was calculated as the concentration of compound that decreased formazan production in compound-treated, uninfected cells to 50% of that produced in compound-free, uninfected cells. The therapeutic index (TI) was calculated by dividing the CC50 by the EC50.
The compounds were tested against control compounds Pirodavir (obtained from Janssen Pharmaceuticals) and Pleconaril (prepared according to Diana et al., J. Med. Chem. 1995, vol. 38, 1355). Antiviral data obtained for the test compounds against strain EV 11 and EV 70 are shown below in Table 5.
A general note: Tetrazolium dyes change colour on reduction, which living cells bring about.

On to `CCOC(=O)/C=C/[C@H](C[C@@H]1CCNC1=O)NC(=O)[C@@H](CC(=O)[C@@H](NC(=O)c1cc(C)on1)C(C)C)Cc1ccc(F)cc1` [Compound B-2, Ethyl-3-{(5′-Methylisoxazole-3′-carbonyl)-L-ValΨ(COCH2)-L-(4-F-Phe)-L-((S)-Pyrrol-Ala)}-E-Propenoate], for which the EC50 was 10 nM.

As a reminder, the EC50 is the concentration needed to bring the measured effect to its halfway point.

The values are drawn from patent US20060046966A1, “Antipicornaviral compounds and compositions, their pharmaceutical uses, and materials for their synthesis” (Agouron Pharmaceuticals, Inc., priority 1998, published 2006).
